Test results from PubChem BioAssay AID330 (DTP/NCI, 2004).
Values joined by “and” are separate entries in the source; they are usually repeats but may differ in a detail not shown here. Equal values may be shown once. Inconclusive results and toxic doses are left out. How the source made its calls: active means survival T/C of 150% or more; inactive means T/C below 125% in these data.

Tested on: P388 leukemia ip, CD2F1 mice, survival T/C
Test: NCI In Vivo Anticancer Drug Screen. Data for tumor model P388 Leukemia (intraperitoneal) in CD2F1 (CDF1) mice
Details: endpoint: median survival time, higher = longer survival
How it was run: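 Mice carrying the transplanted tumor received test compound or vehicle. Survival was recorded in each group, and the value is the treated-group measurement divided by that of the vehicle-treated control group.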

[1] = dose: 25.0 mg/kg/injection, schedule: Q01DX005 (ip), vehicle: Klucel (hydroxypropylcellulose) (HPC)
[2] = dose: 50.0 mg/kg/injection, schedule: Q01DX005 (ip), vehicle: Klucel (hydroxypropylcellulose) (HPC)
[3] = dose: 100.0 mg/kg/injection, schedule: Q01DX005 (ip), vehicle: Klucel (hydroxypropylcellulose) (HPC)
[4] = dose: 200.0 mg/kg/injection, schedule: Q01DX005 (ip), vehicle: Klucel (hydroxypropylcellulose) (HPC)
[5] = dose: 12.5 mg/kg/injection, schedule: Q04DX003 (ip), vehicle: saline
[6] = dose: 25.0 mg/kg/injection, schedule: Q04DX003 (ip), vehicle: saline
[7] = dose: 50.0 mg/kg/injection, schedule: Q04DX003 (ip), vehicle: saline
[8] = dose: 50.0 mg/kg/injection, schedule: Q01DX009 (ip), vehicle: saline with Tween-80
[9] = dose: 100.0 mg/kg/injection, schedule: Q01DX009 (ip), vehicle: saline with Tween-80
[10] = dose: 200.0 mg/kg/injection, schedule: Q01DX009 (ip), vehicle: saline with Tween-80
[11] = dose: 50.0 mg/kg/injection, schedule: Q01DX005 (ip), vehicle: saline with Tween-80
[12] = dose: 100.0 mg/kg/injection, schedule: Q01DX005 (ip), vehicle: saline with Tween-80
[13] = dose: 200.0 mg/kg/injection, schedule: Q01DX005 (ip), vehicle: saline with Tween-80
[14] = dose: 100.0 mg/kg/injection, schedule: Q01DX001 (ip), vehicle: saline
[15] = dose: 200.0 mg/kg/injection, schedule: Q01DX001 (ip), vehicle: saline
[16] = dose: 50.0 mg/kg/injection, schedule: Q01DX009 (ip), vehicle: Klucel (hydroxypropylcellulose) (HPC)
[17] = dose: 100.0 mg/kg/injection, schedule: Q01DX009 (ip), vehicle: Klucel (hydroxypropylcellulose) (HPC)
[18] = dose: 200.0 mg/kg/injection, schedule: Q01DX009 (ip), vehicle: Klucel (hydroxypropylcellulose) (HPC)

Measured: T/C

CC1CN(C(=O)Nc2ccc(Cl)c(Cl)c2)C(=O)O1 (configuration not stated)
inactive: dose: 100.0 mg/kg/injection, schedule: Q04DX003 (ip), vehicle: Klucel (hydroxypropylcellulose) (HPC) 101 % of control | dose: 200.0 mg/kg/injection, schedule: Q04DX003 (ip), vehicle: Klucel (hydroxypropylcellulose) (HPC) 99 % of control | dose: 400.0 mg/kg/injection, schedule: Q04DX003 (ip), vehicle: Klucel (hydroxypropylcellulose) (HPC) 100 % of control

O=C1C2CCCC1C(c1ccccc1)NC2c1ccccc1 (configuration not stated)
inactive: [1] 104 % of control | [2] 102 % of control | [3] 96 % of control | [4] 98 % of control

CC(/C=N/Nc1ccccc1)=N\N=c1/scc(-c2ccc(Br)cc2)n1-c1ccc(C)cc1
inactive: dose: 100.0 mg/kg/injection, schedule: Q01DX001 (ip), vehicle: saline with Tween-80 88 % of control | dose: 400.0 mg/kg/injection, schedule: Q01DX001 (ip), vehicle: saline with Tween-80 86 % of control

CCSC(=O)N1CCN(C(=O)SCC)CC1
inactive: [5] 100 % of control | [6] 100 % of control | [7] 101 % of control | dose: 100.0 mg/kg/injection, schedule: Q04DX003 (ip), vehicle: saline 108 % of control

CC1(C)C/C(=C2\COC(=O)C2=O)NN1c1ccccc1
inactive: [8] 106 % of control | [9] 99 % of control | [10] 105 % of control

Nc1nnc2nc(CC(=O)c3cccc([N+](=O)[O-])c3)/c(=C/C(=O)c3cccc([N+](=O)[O-])c3)n12
inactive: [11] 94 % of control | [12] 91 % of control | [13] 101 % of control

CCn1c2ccc([N+](=O)[O-])cc2c2c([N+](=O)[O-])c(NC=O)ccc21
inactive: [11] 90 % of control | [12] 95 % of control | [13] 86 % of control

COc1c2occc2c(N=Cc2ccccn2)c2ccc(=O)oc12
inactive: dose: 6.25 mg/kg/injection, schedule: Q01DX005 (ip), vehicle: Klucel (hydroxypropylcellulose) (HPC) 97 % of control | dose: 12.5 mg/kg/injection, schedule: Q01DX005 (ip), vehicle: Klucel (hydroxypropylcellulose) (HPC) 97 % of control | [1] 95 % of control | [2] 90 % of control

Cc1cc(N2CCOCC2)ccc1N=Nc1nc2ccccc2s1
inactive: [14] 89 % of control | [15] 88 % of control

CC1=NN(c2ccc(S(=O)(=O)O)cc2)C(=O)C1N=Nc1ccc(C)c(S(=O)(=O)Nc2ccccc2)c1 (configuration not stated)
inactive: [16] 101 % of control | [17] 99 % of control | [18] 101 % of control

COC1=C(C)C2CC(=O)OC3CC4C(C)CC(O)C(=O)C4(C)C(C1=O)C32C (configuration not stated)
inactive: dose: 0.5 mg/kg/injection, schedule: Q01DX009 (ip), vehicle: saline + alcohol 108 % of control | dose: 1.0 mg/kg/injection, schedule: Q01DX009 (ip), vehicle: saline + alcohol 106 % of control | dose: 2.0 mg/kg/injection, schedule: Q01DX009 (ip), vehicle: saline + alcohol 106 % of control | dose: 4.0 mg/kg/injection, schedule: Q01DX009 (ip), vehicle: saline + alcohol 104 % of control | dose: 8.0 mg/kg/injection, schedule: Q01DX009 (ip), vehicle: saline + alcohol 107 % of control

COc1ccccc1NC(=O)c1cc2cc(Br)ccc2cc1O
inactive: dose: 60.0 mg/kg/injection, schedule: Q01DX005 (ip), vehicle: saline with Tween-80 100 % of control | dose: 120.0 mg/kg/injection, schedule: Q01DX005 (ip), vehicle: saline with Tween-80 102 % of control | dose: 240.0 mg/kg/injection, schedule: Q01DX005 (ip), vehicle: saline with Tween-80 108 % of control

COc1cc(OC)c(C(C)=O)c(OC)c1OC
inactive: [8] 106 % of control | [9] 113 % of control | [10] 106 % of control

Clc1ccc2c(c1)nc(-c1ccccn1)n2CCc1ccncc1
inactive: [1] 100 % of control | [2] 95 % of control | [3] 99 % of control | [4] 99 % of control

CC(C)CNS(=O)(=O)c1ncnc2nc[nH]c12
inactive: dose: 100.0 mg/kg/injection, schedule: Q04DX003 (ip), vehicle: saline with Tween-80 100 % of control | dose: 200.0 mg/kg/injection, schedule: Q04DX003 (ip), vehicle: saline with Tween-80 87 % of control

Cc1cc(N/N=C/c2cccnc2)c2ccccc2n1
inactive: [16] 94 % of control | [17] 100 % of control | [18] 98 % of control

CCN(Cc1ccc(CN(CC)C(=O)c2c(-c3ccccc3)noc2C)cc1)C(=O)c1c(-c2ccccc2)noc1C
inactive: dose: 50.0 mg/kg/injection, schedule: Q01DX009 (ip), vehicle: suspension in saline 90 % of control | dose: 100.0 mg/kg/injection, schedule: Q01DX009 (ip), vehicle: suspension in saline 92 % of control | dose: 200.0 mg/kg/injection, schedule: Q01DX009 (ip), vehicle: suspension in saline 86 % of control and 94 % of control

[C-]#[O+].[Cl][Ru]([Cl])([Cl])([Cl])[Cl]
inactive: dose: 12.5 mg/kg/injection, schedule: Q04DX003 (ip), vehicle: water 108 % of control | dose: 25.0 mg/kg/injection, schedule: Q04DX003 (ip), vehicle: water 96 % of control | dose: 50.0 mg/kg/injection, schedule: Q04DX003 (ip), vehicle: water 105 % of control

O=C(O)Cc1ccc(-c2cn3c(n2)sc2ccccc23)cc1
inactive: dose: 50.0 mg/kg/injection, schedule: Q01DX009 (ip), vehicle: saline 108 % of control | dose: 100.0 mg/kg/injection, schedule: Q01DX009 (ip), vehicle: saline 107 % of control | dose: 200.0 mg/kg/injection, schedule: Q01DX009 (ip), vehicle: saline 112 % of control

CN(C)C1C(=O)C(C(=O)NP(=O)(NCCCO)N(CCCl)CCCl)=C(O)C2(O)C(=O)C3=C(O)c4c(O)cccc4C(C)(O)C3CC12 (configuration not stated)
inactive: dose: 0.25 mg/kg/injection, schedule: Q01DX005 (ip), vehicle: saline 92 % of control | dose: 0.5 mg/kg/injection, schedule: Q01DX005 (ip), vehicle: saline 102 % of control | dose: 1.0 mg/kg/injection, schedule: Q01DX005 (ip), vehicle: saline 104 % of control | dose: 2.0 mg/kg/injection, schedule: Q01DX005 (ip), vehicle: saline 100 % of control | dose: 3.13 mg/kg/injection, schedule: Q04DX003 (ip), vehicle: saline 98 % of control | dose: 4.0 mg/kg/injection, schedule: Q01DX005 (ip), vehicle: saline 101 % of control | dose: 6.25 mg/kg/injection, schedule: Q04DX003 (ip), vehicle: saline 102 % of control | dose: 8.0 mg/kg/injection, schedule: Q01DX005 (ip), vehicle: saline 101 % of control | [5] 103 % of control | [6] 107 % of control | [7] 108 % of control

COc1cc2ccnc(C=O)c2cc1OC
inactive: dose: 25.0 mg/kg/injection, schedule: Q01DX009 (ip), vehicle: saline with Tween-80 110 % of control | [8] 110 % of control | [9] 107 % of control

Cc1nccc2cccc(CNC(C)C)c12
inactive: [14] 103 % of control | [15] 100 % of control

O=CN1CCN(c2ccc([N+](=O)[O-])c3no[n+]([O-])c23)CC1
inactive: dose: 1.87 mg/kg/injection, schedule: Q01DX009 (ip), vehicle: saline 107 % of control | dose: 1.87 mg/kg/injection, schedule: Q01DX009 (ip), vehicle: suspension in saline 94 % of control | dose: 3.75 mg/kg/injection, schedule: Q01DX009 (ip), vehicle: saline 92 % of control | dose: 3.75 mg/kg/injection, schedule: Q01DX009 (ip), vehicle: suspension in saline 113 % of control | dose: 7.5 mg/kg/injection, schedule: Q01DX009 (ip), vehicle: saline 86 % of control | dose: 7.5 mg/kg/injection, schedule: Q01DX009 (ip), vehicle: suspension in saline 116 % of control | dose: 15.0 mg/kg/injection, schedule: Q01DX009 (ip), vehicle: saline 91 % of control | dose: 15.0 mg/kg/injection, schedule: Q01DX009 (ip), vehicle: suspension in saline 116 % of control

NC1CN(C(COCc2ccccc2)c2ccc(OCc3ccccc3)cc2)C1=O (configuration not stated)
inactive: [11] 100 % of control | [12] 103 % of control | [13] 97 % of control
